Laboratory results reported in US5500414A, “Derivatives of peptides usable as inhibitors of bacterial collagenases” (Commissariat a l'Energie Atomique, priority 1991, dated 1996).

molecular target: bacterial collagenase; assay: Inhibition of bacterial collagenase; Ki from dissociation and association rate constants, substrate Fa--Leu--Gly--Pro--Ala; assay type: biochemical, Empedobacterium collagenolyticum; settings: ratio Koff/Kon, slow binding inhibitors, pH7 Tricine buffer
Description: The activities of the different compounds A, B, C and D were determined on the one hand by measuring the association rate constant of the inhibitors to collagenase by the method of Morrison, J. & Walsh, C. T., 1987, Adv., Enzymol. Relat. Aeras Mol. Biol. applied in the case where the inhibitors are of the slow binding type and on the other hand by measuring the dissociation rate constants of the inhibitors of the enzyme--inhibitor complex. In this case, after allowing the collagenase to preincubate in the presence of an inhibitor excess, the thus formed enzyme--inhibitor complex is purified by gel filtration. The solution containing the purified complex is then diluted by a factor of 10,000 in a reference buffer and then, as a function of time, measurement takes place of the return of the activity of the collagenase, which represents the dissociation of the inhibitor of the enzyme--inhibitor complex.
The inhibition constants given in the table correspond to the ratio of the dissociation rate constants Koff and the association rate constants Kon measured in this way. In all the activity measurement experiments we used as the synthetic substrate Fa--Leu--Gly--Pro--Ala in a pH7 Tricine buffer. The source of the bacterial collagenase used was the strain Empedobacterium collagenolyticum.

| Substance | Ki |
| --- | --- |
| Z--Gly--Pro--Phe*--PO(OH)--CH2 --CH2 --CO--Pro--Nle*2Na^+ | 0.4 nM |
| Z,D,L-Phe*PCH2DL-Ala°ProNle°, 2Na^+ [F] | 2350 nM |
| Z--Pro--Phe*--PO(OH)--CH2 --CH2 --CO--Pro--Nle* 2Na^+ [Compound B] | 80 nM |
| Z--D,LPhe*--PO2 CH2 --CH2 --CO--Pro--Nle*,2Na^+ [Compound A] | 12 nM |
